Test results taken from PubChem BioAssay (NCI).
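Growth conditions: 96-well plates. Treatment: test compound, 48 hours, 5 concentrations. Analysis: linear interpolation between bracketing concentrations; unreached endpoints set to highest concentration. TGI is the concentration that stops growth completely.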

Legend:
Experiment in all cases: growth of human tumour cells (NCI), 48 h
[1] = tested on: CCRF-CEM leukemia
[2] = tested on: SK-MEL-5 melanoma
[3] = tested on: OVCAR-8 ovarian
[4] = tested on: SK-MEL-28 melanoma
[5] = tested on: MDA-MB-435
[6] = tested on: NCI-H522 lung
[7] = tested on: MOLT-4 leukemia
[8] = tested on: SF-539 CNS
[9] = tested on: MALME-3M melanoma
[10] = tested on: TK-10 renal

Row | Structure (SMILES) | TGI [1] [µM] | TGI [2] [µM] | TGI [3] [µM] | TGI [4] [µM] | TGI [5] [µM] | TGI [6] [µM] | TGI [7] [µM] | TGI [8] [µM] | TGI [9] [µM] | TGI [10] [µM]
1 | Clc1ccc(-c2nnc(-c3c(Cl)c(Cl)c(Cl)c(Cl)c3-c3nc4ccccc4[nH]3)o2)cc1 | > 100 | > 100 | > 100 | > 100 | > 100 | > 100 | > 100 | > 100 | > 100 | –
2 | COc1cc2c(cc1OC)-c1cc3ccc(OC)c(OC)c3c[n+]1CC2 | > 100 | > 100 | > 100 | > 100 | > 100 | > 100 | > 100 | > 100 | > 100 | > 100
3 | COc1ccc2c(c1)CC[C@@H]1[C@@H]2CC[C@]2(C)C(=O)/C(=C/c3ccc(O)c(OC)c3)C[C@@H]12 | > 100 | > 100 | > 100 | > 100 | > 100 | – | 92.1 | – | – | > 100
4 | Cn1c(=O)c2c(nc(NCCNc3nc4c(c(=O)n(C)c(=O)n4C)n3C)n2C)n(C)c1=O | > 100 | > 100 | > 100 | > 100 | > 100 | > 100 | > 100 | – | > 100 | > 100
5 | CCOC(=O)c1c(CN2CCCC2)n(-c2ccccc2)c2cc(Br)c(OC)cc12 | 30.6 | 25.3 | > 100 | 35.3 | > 100 | 31.6 | 24.3 | 72.6 | 30.4 | 32.5
6 | N#C[S-].[Ce+3].c1cnc2c(c1)ccc1cccnc12.c1cnc2c(c1)ccc1cccnc12.c1cnc2c(c1)ccc1cccnc12 | – | 15.2 | 17.5 | 26.9 | – | 21.1 | > 100 | 16 | 8.84 | 29.9
7 | NC(CC(=O)O)(Cc1ccccc1)C(=O)O (stereo unspecified) | > 100 | > 100 | > 100 | > 100 | > 100 | > 100 | > 100 | > 100 | > 100 | > 100
8 | CC(=O)C1=C(O)CCC1=O | > 100 | > 100 | > 100 | > 100 | > 100 | > 100 | > 100 | > 100 | > 100 | > 100
9 | C[C@]12CCC(=O)C=C1CC[C@@H]1[C@@H]2[C@@H](O)C[C@@]2(C)[C@H]1CC[C@]2(O)C(=O)COC(=O)C1CCCC1 | > 100 | > 100 | > 100 | > 100 | > 100 | > 100 | – | > 100 | > 100 | > 100
10 | Cc1ccc(SSCCCCCS(=O)O)cc1 | > 100 | – | – | > 100 | – | 27.9 | 40.3 | 30.3 | > 100 | 75.4
11 | O=c1/c(=C/c2ccc([N+](=O)[O-])o2)sc2n1[C@@H](c1ccc3c(c1)OCO3)C=C(c1cc(F)c(Cl)cc1Cl)N=2 | 10.5 | 24 | 56.4 | > 100 | 35.3 | 65.6 | > 100 | > 100 | 40.5 | 47.8
12 | O=C(NNC(=O)c1nsc2ccccc12)c1ccc(Cl)cc1 | 38.1 | 59.2 | 72.8 | 36.1 | – | – | 50.2 | 41.9 | – | 48.9
